Format in all cases: cell-based
Holding throughout (conditions): 48 hours, 20° C., vs untreated control

The test system of one test is Fusarium culmorum. Kind of test: Spore germination test, Fusarium culmorum. The protocol:
(§1) 50 μl of a solution or suspension of an active ingredient according to the invention together with 50 μl of a spore suspension produced by washing spores of an agar culture with a nutrient solution that contained per liter 10 g of sugar, 1 g of glycol, 1 g of KH2 PO4 and 0.5 g of MgSO4 were introduced into the concave-ground portion of concave-ground microscope slides.
(§2) The microscope slides were stored at 20° C. for 48 hours in a Petri dish, the base of which was covered with a moistened filter paper.
(§3) Subsequently, the ratio of germinated and non-germinated spores was compared with an untreated control specimen.
(§4) The degree of activity was calculated as a percentage in accordance with the following formula: [formula]

For the next test, the system named is Verticillium dahliae. In words: Spore germination test, Verticillium dahliae. The protocol:
as §1, §2, §3, §4

A further test concerns Fusarium nivale. In words: Spore germination test, Fusarium nivale. How it is done: as §1, §2, §3, §4
The subject of another test is Botrytis cinerea. Kind of test: Spore germination test, Botrytis cinerea. How it is done:
as §1, §2, §3, §4

The test system of a further test is Colletotrichum coffeanum. Kind of test: Spore germination test, Colletotrichum coffeanum. The protocol:
as §1, §2, §3, §4

The test system of the next test is Alternaria tenuis. In words: Spore germination test, Alternaria tenuis. The protocol:
as §1, §2, §3, §4

For a further test, the system named is Penicillium glaucum. Kind of test: Spore germination test, Penicillium glaucum. How it is done:
as §1, §2, §3, §4

In the case of `O=C(Cc1cc([N+](=O)[O-])c(Cl)c([N+](=O)[O-])c1Cl)OCC#CI` [G], the “degree of activity (fungal toxicity with respect to fungal spores)” value (“degree of activity” for short) is on record as 70% in the test on Fusarium culmorum (2 ppm); 70% in the test with Verticillium dahliae (2 ppm); 80% in the test on Fusarium nivale (2 ppm); 100% in the test on Botrytis cinerea (2 ppm); 60% with Colletotrichum coffeanum (2 ppm); 70% in the test with Alternaria tenuis (2 ppm). The “degree of activity” value in the test on Penicillium glaucum (2 ppm) worked out at 70%.
Take `O=C(Cc1c(Cl)cccc1Cl)OCC#CI` [C]: the “degree of activity” value in the test with Fusarium culmorum (1 ppm) was found to be 95%; with Fusarium culmorum (2 ppm), 95%; with Fusarium culmorum (4 ppm) it was 95%; in the test on Verticillium dahliae (1 ppm) it was 100%; in the test on Verticillium dahliae (2 ppm) it was 100%; in the test with Verticillium dahliae (4 ppm) it was 100%. The “degree of activity” value was found to be 100% in the test on Fusarium nivale (1 ppm); 100% with Fusarium nivale (2 ppm); 100% with Fusarium nivale (4 ppm); 95% in the test with Botrytis cinerea (1 ppm); 95% in the test on Botrytis cinerea (2 ppm); 100% in the test on Botrytis cinerea (4 ppm). Also, the “degree of activity” value with Colletotrichum coffeanum (1 ppm), in the test on Colletotrichum coffeanum (2 ppm), in the test on Colletotrichum coffeanum (4 ppm), with Alternaria tenuis (1 ppm), in the test on Alternaria tenuis (2 ppm) and with Alternaria tenuis (4 ppm) was 95% in each case. Further, the entries for the “degree of activity” value in the test on Penicillium glaucum (1 ppm), in the test with Penicillium glaucum (2 ppm) and with Penicillium glaucum (4 ppm) were 60%, 90% and 90%, respectively.
For the compound `O=C(Cc1ccc([N+](=O)[O-])cc1)OCC#CI` [F], the “degree of activity” value with Fusarium culmorum (2 ppm) is 40%; in the test on Verticillium dahliae (2 ppm), 90%; in the test on Fusarium nivale (2 ppm), 80%; with Botrytis cinerea (2 ppm) it was 40%; with Colletotrichum coffeanum (2 ppm), 90%; in the test on Alternaria tenuis (2 ppm), 100%. Moreover, the “degree of activity” value in the test on Penicillium glaucum (2 ppm) was determined as 80%.
With `O=C(OCC#CI)C(Cl)c1ccccc1` (centres unmarked) [D], the “degree of activity” value is 90% with Fusarium culmorum (1 ppm); 95% in the test with Fusarium culmorum (2 ppm); 95% in the test with Fusarium culmorum (4 ppm); 80% in the test on Verticillium dahliae (1 ppm); 80% in the test with Verticillium dahliae (2 ppm); 95% in the test on Verticillium dahliae (4 ppm). For the same compound, the “degree of activity” value in the test with Fusarium nivale (1 ppm) is 60%; in the test with Fusarium nivale (2 ppm), 80%; in the test with Fusarium nivale (4 ppm) it was 90%; in the test with Botrytis cinerea (1 ppm), 80%; in the test on Botrytis cinerea (2 ppm) it was 80%; in the test with Botrytis cinerea (4 ppm), 90%. Also, the “degree of activity” value with Colletotrichum coffeanum (1 ppm) was found to be 80%; with Colletotrichum coffeanum (2 ppm) it was 90%; in the test with Colletotrichum coffeanum (4 ppm), 95%; in the test on Alternaria tenuis (1 ppm), 80%; in the test with Alternaria tenuis (2 ppm), 90%; with Alternaria tenuis (4 ppm) it was 90%. Also, the “degree of activity” value with Penicillium glaucum (1 ppm) was found to be 90%; in the test on Penicillium glaucum (2 ppm), 95%; in the test with Penicillium glaucum (4 ppm), 95%.

Values taken from patent US4639541A, “Substituted phenylacetic acid iodopropargyl esters, biocidal agents containing same and process for manufacturing same” (priority 1984, dated 1987).
